# Test results: article PMC8959600 (eLife, 2022)
# Tests used:
# [1] = test system: clinical isolates of Shigella (S. flexneri EG478, S. flexneri_01_0417, S. sonnei_02_1181); test: Time-kill curve assays; type: cell-based, Shigella spp.
# Description: Time-kill curve assays were performed in 20 mL volume in 50 mL tubes by culturing 5 × 10^5 CFU/mL Shigella spp. in Müller Hinton broth in the presence of four antimicrobial concentrations in doubling dilutions ranging from 0.5xMIC to 4xMIC. Bacteria were grown with agitation at 200 rpm at 37 °C and monitored over a time-course of 24 hr (0, 2, 4, 6, 8, and 24 hr). For each concentration and time point, 100 μL of bacterial culture were diluted and used to inoculate Luria-Bertani agar plates that were incubated at 37 °C overnight. Next, bacterial colonies were enumerated.
# Shigella (Sf2457T) = test: Checkerboard synergy assay (FIC), laboratory isolate; type: cell-based, Shigella flexneri
# Description: (§1) Before initiating drug combination assays, the MIC values for both compounds were determined against Shigella (Sf2457T), Salmonella (St14028), and E. coli (EcDH5a) isolates. […] 20 μM moxifloxacin was used as negative control (100% bacterial growth inhibition) in one column and DMSO as positive control (100% bacterial growth). A total of 25 µl of 1 × 10^6 CFU/mL bacterial culture was added to each well of a 384-well plate (μClear; Greiner Bio‐One). Plates were incubated overnight at 37 °C. Next, 10 µl of resazurin were added and plates were incubated at room temperature for 3 hr. Bacterial growth inhibition was measured by fluorescence in a Envision plate reader (PerkinElmer). All assays were performed in duplicate. Combination studies with clinical isolates were performed in 96-well plates (Greiner) adding 200 μl of 1 × 10^6 CFU/mL bacterial culture and following the same checkboard titration method as described above. The range of final working concentrations of each antimicrobial was adjusted based on the MIC of each selected organism.
# (§2) MICs were determined for drug A and drug B alone and in combination. […] The sum of FIC was expressed using the following equation: FIC = (MIC of drug A in combination / MIC of drug A alone) + (MIC of drug B in combination / MIC of drug B alone) ([Le Minh et al., 2015]; [Petersen et al., 2006]; [Hall et al., 1983]; [European Committee for Antimicrobial Susceptibility Testing (EUCAST) of the European Society of Clinical Microbiology and Infectious Dieases (ESCMID), 2000]).
# Campylobacter jejuni = test: MIC by micro dilution, clinical Campylobacter isolates from Vietnam; type: cell-based; details: 75 Campylobacter jejuni from diarrhoeal cases in Vietnam; read-out: median MIC
# Excerpt: Selected compounds, including Tebipenem, were profiled against a panel of […] clinical isolates of enteric pathogens comprised of Shigella (Vietnam and Kenya; n = 135), non-typhoidal Salmonella (Vietnam; n = 117), Campylobacter (Vietnam; n = 75), and various pathogenic E. coli species (Vietnam; n = 7) ([Butcher et al., 2014]). The antimicrobial susceptibility profile of these organisms is described in Supplementary file 1.
# Compound screening and dose response assays have been described previously ([Van Voorhis et al., 2016]; [Wiegand et al., 2008]). Briefly, the selected bacteria were cultured on the Luria-Bertani agar overnight at 37 °C (Campylobacter isolates were grown in 2.5% Laked Horse Blood cation-adjusted Mueller Hinton medium (CAMHB, Sigma Aldrich) and incubated in microaerophilic conditions (10% CO2, 5% O2 and 85% N2) at 42 °C); colonies were added to sterile PBS to form 0.5 McFarland solutions. […] The activity of the chemical was recorded as being active (yes) or non-active (no) for each of the tested chemicals. A non-active result was recorded when there was no evidence of bacterial inhibition, and the culture area was indistinguishable from the negative control.
# MICs were evaluated using the micro dilution assay in Müller Hinton broth using 1 mM chemical stock solutions, and a final concentration of 5 × 10^5 CFU/mL bacteria. […]
# E. coli (EcDH5a) = test: Checkerboard synergy assay (FIC), laboratory isolate; type: cell-based, Escherichia coli
# Description: as §1, §2
# [2] = in combination with LpxC inhibitor PF-5081090
# [3] = in combination with azithromycin
# [4] = in combination with ceftriaxone
# [5] = in combination with ciprofloxacin
compound,measurement,setting,value
C[C@@H](O)[C@H]1C(=O)N2C(C(=O)O)=C(SC3CN(C4=NCCS4)C3)[C@H](C)[C@H]12 [Tebipenem],"time kill, antibacterial activity","[1]; higher concentrations (2–4 x MIC), 24 hr",protracted antibacterial activity
same,"time kill, population behaviour","[1]; lower concentrations (0.5–1 x MIC), after 6 hr exposure, all three isolates",Population rebounds occurred
same,interaction (FIC index),Shigella (Sf2457T); [2],partial synergy
same,reduction of the MIC against Tebipenem,Shigella (Sf2457T); [2],> 10 fold
same,interaction (FIC index),Shigella (Sf2457T); [3],partial synergy
same,interaction (FIC index),Shigella (Sf2457T); [4],indifference or partial synergy
same,interaction (FIC index),Shigella (Sf2457T); [5],indifference or partial synergy
same,interaction (FIC index),Shigella (Sf2457T); in combination with mecillinam,indifference or partial synergy
same,MIC,Campylobacter jejuni,< 0.1 µM
same,interaction (FIC index),E. coli (EcDH5a); [2],partial synergy
same,reduction of the MIC against Tebipenem,E. coli (EcDH5a); [2],> 10 fold
same,interaction (FIC index),E. coli (EcDH5a); [3],indifference or antagonism
same,interaction (FIC index),E. coli (EcDH5a); [4],indifference or partial synergy
same,interaction (FIC index),E. coli (EcDH5a); [5],indifference or partial synergy
same,interaction (FIC index),E. coli (EcDH5a); in combination with mecillinam,indifference or partial synergy
